Assay results taken from patent publication US9840508B2, “N-acyl-(3-substituted)-(8-methyl)-5,6-dihydro-[1,2,4]triazolo[4,3-a] pyrazines as selective NK-3 receptor antagonists, pharmaceutical composition, methods for use in NK-3 receptor-mediated disorders” (EUROSCREEN SA, priority 2013, dated 2017).

Tests used:
[1] = molecular target: hERG channel (Homo sapiens (Human), UniProt Q12809); assay: hERG inhibition assay (manual patch-clamp, HEK 293 cells); type: cell-based; settings: HEK 293 cells stably transfected with hERG, read-out: CardioSafety (hERG IC50)
Chain of hERG channel (Q12809 whole entry): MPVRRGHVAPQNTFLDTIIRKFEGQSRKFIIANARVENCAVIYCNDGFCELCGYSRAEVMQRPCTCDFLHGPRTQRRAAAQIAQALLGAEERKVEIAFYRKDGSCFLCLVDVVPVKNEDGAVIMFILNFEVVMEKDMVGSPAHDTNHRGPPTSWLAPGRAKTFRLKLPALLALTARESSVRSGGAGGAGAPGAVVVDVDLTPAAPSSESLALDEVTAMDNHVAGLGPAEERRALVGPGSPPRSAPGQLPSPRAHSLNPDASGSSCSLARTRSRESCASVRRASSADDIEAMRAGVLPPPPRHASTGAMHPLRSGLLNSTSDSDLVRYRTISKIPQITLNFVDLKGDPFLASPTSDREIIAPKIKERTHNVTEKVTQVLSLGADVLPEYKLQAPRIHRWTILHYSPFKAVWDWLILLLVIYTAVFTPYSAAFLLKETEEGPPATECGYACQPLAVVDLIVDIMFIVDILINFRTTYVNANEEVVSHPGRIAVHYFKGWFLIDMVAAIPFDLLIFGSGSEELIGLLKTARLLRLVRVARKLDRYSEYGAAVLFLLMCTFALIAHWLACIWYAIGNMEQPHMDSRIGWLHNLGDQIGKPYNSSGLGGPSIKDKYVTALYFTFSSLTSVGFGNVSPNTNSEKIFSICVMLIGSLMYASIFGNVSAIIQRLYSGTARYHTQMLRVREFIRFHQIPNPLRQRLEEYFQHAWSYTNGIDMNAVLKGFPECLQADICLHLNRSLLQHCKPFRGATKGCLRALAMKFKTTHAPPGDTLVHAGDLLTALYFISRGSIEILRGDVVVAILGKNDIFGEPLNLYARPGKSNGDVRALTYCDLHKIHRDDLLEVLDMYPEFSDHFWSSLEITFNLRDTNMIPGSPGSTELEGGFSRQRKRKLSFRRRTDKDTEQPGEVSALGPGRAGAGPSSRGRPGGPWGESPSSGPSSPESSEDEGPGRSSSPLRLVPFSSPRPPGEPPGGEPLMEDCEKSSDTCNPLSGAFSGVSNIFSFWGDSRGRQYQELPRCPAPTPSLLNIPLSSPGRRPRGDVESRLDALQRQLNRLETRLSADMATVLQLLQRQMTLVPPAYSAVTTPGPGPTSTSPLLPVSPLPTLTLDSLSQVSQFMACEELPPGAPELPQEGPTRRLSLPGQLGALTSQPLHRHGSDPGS
Source text: The human ether-a-go-go related gene (hERG) encodes the inward rectifying voltage gated potassium channel in the heart (IKr) which is involved in cardiac repolarisation. […] IKr current inhibition accounts for the vast majority of known cases of drug-induced QT-prolongation. A number of drugs have been withdrawn from late stage clinical trials due to these cardiotoxic effects, therefore it is important to identify inhibitors early in drug discovery.
The hERG inhibition study aims at quantifying the in vitro effects of compounds of the invention on the potassium-selective IKr current generated in normoxic conditions in stably transfected HEK 293 cells with the human ether-a-go-go-related gene (hERG).
Whole-cell currents (acquisition by manual patch-clamp) elicited during a voltage pulse were recorded in baseline conditions and following application of tested compounds (5 minutes of exposure). The concentrations of tested compounds (0.3 μM; 3 μM; 10 μM; 30 μM) reflect a range believed to exceed the concentrations at expected efficacy doses in preclinical models. […]
The current density recorded were normalized against the baseline conditions and corrected for solvent effect and time-dependent current run-down using experimental design in test compound free conditions. […]

[2] = system: plasma protein; assay: Determination of plasma protein binding (rapid equilibrium dialysis); type: in vitro ADME; settings: 4 hours at 37° C.
Source text: Determination of Plasma Protein Binding
The pharmacokinetic and pharmacodynamic properties of chemicals/drugs are largely a function of the reversible binding of chemicals to plasma or serum proteins. Generally, only the unbound or “free fraction” of a drug is available for diffusion or transport across cell membranes, and for interaction with a pharmacological/toxicological target. Consequently, the extent of the plasma protein binding (PPB) of a compound influences its action as well as its distribution and elimination.
The determination of plasma protein binding (PPB) of a compound is enabled by equilibrium dialysis, an accepted and standard method for reliable estimation of the non-bound drug fraction in plasma. RED (Rapid Equilibrium Dialysis) device insert is made of two side-by-side chambers separated by an O-ring-sealed vertical cylinder of dialysis membrane (MWCO˜8,000). Plasma containing drug (at 5 μM or blood concentrations otherwise corresponding to efficacious doses, if known) is added to one chamber while buffer is added to the second. After 4 hours incubation at 37° C. under shaking, an aliquot is removed from each chamber and analyzed by a LC-MS/MS procedure enables the determination of both free and bound drug.
The percentages provided in Table 4 represent for the compounds of the invention the bound drug fraction to the plasma protein. The “free fraction” may be calculated as 100%−% rPPB (i.e. the complementary percentage of that disclosed in Table 4, corresponding to the drug concentration that is unbound and therefore available to engage biological target and elicit pharmacological activity).

[3] = system: circulating LH levels; assay: Castrated male rat model, circulating luteinizing hormone (LH), oral dosing; type: in vivo; settings: castrated male SD rat; single oral dose less than or equal to 30 mg/kg; p<0.05
Method: In vivo Assay to Assess Compound Activity in Rat (Oral Dosing)
The effect of compounds of the invention to inhibit luteinizing hormone (LH) secretion is determined by the following biological studies.
Castrated Male Rat Model to Assess the Effect of Compound of Invention on Circulating Levels of Luteinizing Hormone (LH)
In humans and rodents, castration is well-precedented to permit heightened, persistent GnRH signaling and consequent elevation of circulating LH. Thus, a castrated rat model is used to provide a broad index for measurement of LH inhibition as a marker of test compound inhibition of the GnRH signaling pathway.
Castrated adult male Sprague-Dawley (SD) rats (150-175 g) were purchased from Janvier (St Berthevin, France). All animals were housed 2 per cage in a temperature-controlled room (22±2° C.) and 50±5% relative humidity with a 12 hour/12 hour light/dark cycles (lights off at 6 h00 pm). The animals were allowed 3 weeks of postoperative recovery prior to study. Animals were handled on a daily basis. Standard diet and tap water were provided ad libitum. Animal cage litters were changed once a week. […]
After basal sampling (TO) a single dose of compounds of the invention or vehicle was administrated orally to rats. […] Serum LH levels were determined using radioimmunoassay kit from RIAZEN—Rat LH, Zentech (Liège, Belgium). […]

**Q.** Which results are given for `Cc1ccc(-c2nnc3n2CCN(C(=O)c2ccc(F)cc2)[C@@H]3C)o1` [Compound 1, (R)-(4-fluorophenyl)(8-methyl-3-(5-methylfuran-2-yl)-5,6-dihydro-[1,2,4]triazolo[4,3-a]pyrazin-7(8H)-yl)methanone]?
**A.** IC50 [1]: 31 µM; Exposure (% rPPB), bound drug fraction to the plasma protein [2]: 28%; Suppression of circulating LH levels [3]: significantly suppressed circulating LH levels

**Q.** With `C[C@@H]1c2nnc(-c3csc(C(F)(F)F)n3)n2CCN1C(=O)c1ccc(F)cc1` [Compound 3, (R)-(4-fluorophenyl)(8-methyl-3-(2-(trifluoromethyl)thiazol-4-yl)-5,6-dihydro-[1,2,4]triazolo[4,3-a]pyrazin-7(8H)-yl)methanone] as the compound, how does the IC50 [1] read?
**A.** 70 µM

**Q.** What about the “Exposure (% rPPB), bound drug fraction to the plasma protein” value [2] of the same compound?
**A.** 50%
